Experimental data taken from US20070270399A1, “New compounds 302” (priority 2006, published 2007).

How the values were obtained:
human NK1 receptor = molecular target: T1, human NK1 receptor (Homo sapiens, UniProt P25103); assay: FLIPR assay, inhibition of human NK1 receptor activation (intracellular Ca2+); format: cell-based; conditions: CHO cells with human NK1 receptor, Substance P agonist at approx. EC60; pKB converted from IC50
T1 construct: expressed in transfected cells; host or cells: CHO cells (AstraZeneca R&D, Wilmington USA), pRcCMV vector
T1 sequence (P25103 whole entry): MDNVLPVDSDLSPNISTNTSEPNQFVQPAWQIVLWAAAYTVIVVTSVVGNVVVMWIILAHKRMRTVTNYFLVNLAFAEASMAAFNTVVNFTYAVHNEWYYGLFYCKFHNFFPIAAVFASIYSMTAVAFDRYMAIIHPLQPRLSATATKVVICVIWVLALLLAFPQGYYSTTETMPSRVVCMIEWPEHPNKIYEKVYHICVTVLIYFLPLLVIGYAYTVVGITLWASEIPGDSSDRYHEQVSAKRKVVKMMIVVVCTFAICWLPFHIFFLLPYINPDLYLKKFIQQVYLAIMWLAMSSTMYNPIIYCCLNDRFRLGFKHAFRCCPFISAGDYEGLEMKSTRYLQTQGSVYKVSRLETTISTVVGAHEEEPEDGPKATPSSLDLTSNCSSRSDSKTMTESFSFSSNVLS
Description: (§1) Chinese Hamster Ovary (CHO) K1 cells (obtained from ATCC) were stably transfected with the human NK2 receptor (hNK2R cDNA in pRc/CMV, Invitrogen) or the human NK3 receptor (hNK3R in pcDNA 3.1/Hygro (+)/IRES/CD8, Invitrogen vector modified at AstraZeneca EST-Bio UK, Alderley Park). The cells were transfected with the cationic lipid reagent LIPOFECTAMINE™ (Invitrogen) and selection was performed with Geneticin (G418, Invitrogen) at 1 mg/ml for the hNK2R transfected cells and with Hygromycin (Invitrogen) at 500 μg/ml for the hNK3R transfected cells. Single cell clones were collected by aid of Fluorescence Activated Cell Sorter (FACS), tested for functionality in a FLIPR assay (see below), expanded in culture and cryopreserved for future use. CHO cells stably transfected with human NK1 receptors originates from AstraZeneca R&D, Wilmington USA. Human NK1 receptor cDNA (obtained from RNA-PCR from lung tissue) was subcloned into pRcCMV (Invitrogen). Transfection was performed by Calcium Phosphate and selection with 1 mg/ml G418. […]
(§2) The activity of a compound of the invention to inhibit NK1/NK2/NK3 receptor activation measured as NK1/NK2/NK3 receptor mediated increase in intracellular Ca^2+ was assessed by the following procedure: […]

human NK2 receptor = molecular target: T2, human NK2 receptor (Homo sapiens, UniProt P21452); assay: FLIPR assay, inhibition of human NK2 receptor activation (intracellular Ca2+); format: cell-based; conditions: CHO cells with human NK2 receptor, NKA agonist at approx. EC60; pKB converted from IC50
T2 construct: expressed in transfected cells; host or cells: CHO K1 cells (ATCC), pRc/CMV vector
T2 sequence (P21452 1-398): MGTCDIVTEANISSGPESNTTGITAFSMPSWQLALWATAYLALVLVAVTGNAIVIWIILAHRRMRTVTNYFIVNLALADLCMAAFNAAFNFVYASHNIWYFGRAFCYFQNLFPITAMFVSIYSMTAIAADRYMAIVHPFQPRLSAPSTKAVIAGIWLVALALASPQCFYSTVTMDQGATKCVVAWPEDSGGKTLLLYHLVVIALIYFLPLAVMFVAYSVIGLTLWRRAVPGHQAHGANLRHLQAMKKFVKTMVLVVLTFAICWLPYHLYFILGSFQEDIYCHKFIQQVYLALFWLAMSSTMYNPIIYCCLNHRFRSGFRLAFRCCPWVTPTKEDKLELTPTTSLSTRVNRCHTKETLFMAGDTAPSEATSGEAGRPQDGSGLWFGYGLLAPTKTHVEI
Description: as §1, §2

human NK3 receptor = molecular target: T3, human NK3 receptor (Homo sapiens, UniProt P29371); assay: FLIPR assay, inhibition of human NK3 receptor activation (intracellular Ca2+); format: cell-based; conditions: CHO cells with human NK3 receptor, Pro-7-NKB agonist at approx. EC60; pKB converted from IC50
T3 construct: expressed in transfected cells; host or cells: CHO K1 cells (ATCC), pcDNA 3.1/Hygro (+)/IRES/CD8 vector
T3 sequence (P29371 1-465): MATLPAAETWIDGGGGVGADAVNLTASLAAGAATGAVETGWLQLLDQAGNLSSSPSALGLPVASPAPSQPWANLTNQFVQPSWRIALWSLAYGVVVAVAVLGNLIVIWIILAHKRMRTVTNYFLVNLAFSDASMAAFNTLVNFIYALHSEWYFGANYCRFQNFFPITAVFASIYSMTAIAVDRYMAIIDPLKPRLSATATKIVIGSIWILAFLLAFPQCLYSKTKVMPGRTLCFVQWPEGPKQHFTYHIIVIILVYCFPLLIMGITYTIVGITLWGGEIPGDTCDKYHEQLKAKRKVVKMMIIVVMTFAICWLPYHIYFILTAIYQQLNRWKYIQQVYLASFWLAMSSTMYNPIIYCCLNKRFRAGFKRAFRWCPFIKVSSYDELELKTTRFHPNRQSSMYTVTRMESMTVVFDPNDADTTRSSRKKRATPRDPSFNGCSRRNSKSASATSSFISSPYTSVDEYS
Description: as §1, §2

[1] = molecular target: hERG-encoded potassium channel (Homo sapiens, UniProt Q12809); assay: Activity against hERG (planar-array-based voltage clamp); format: cell-based
hERG-encoded potassium channel, sequence (Q12809 whole entry): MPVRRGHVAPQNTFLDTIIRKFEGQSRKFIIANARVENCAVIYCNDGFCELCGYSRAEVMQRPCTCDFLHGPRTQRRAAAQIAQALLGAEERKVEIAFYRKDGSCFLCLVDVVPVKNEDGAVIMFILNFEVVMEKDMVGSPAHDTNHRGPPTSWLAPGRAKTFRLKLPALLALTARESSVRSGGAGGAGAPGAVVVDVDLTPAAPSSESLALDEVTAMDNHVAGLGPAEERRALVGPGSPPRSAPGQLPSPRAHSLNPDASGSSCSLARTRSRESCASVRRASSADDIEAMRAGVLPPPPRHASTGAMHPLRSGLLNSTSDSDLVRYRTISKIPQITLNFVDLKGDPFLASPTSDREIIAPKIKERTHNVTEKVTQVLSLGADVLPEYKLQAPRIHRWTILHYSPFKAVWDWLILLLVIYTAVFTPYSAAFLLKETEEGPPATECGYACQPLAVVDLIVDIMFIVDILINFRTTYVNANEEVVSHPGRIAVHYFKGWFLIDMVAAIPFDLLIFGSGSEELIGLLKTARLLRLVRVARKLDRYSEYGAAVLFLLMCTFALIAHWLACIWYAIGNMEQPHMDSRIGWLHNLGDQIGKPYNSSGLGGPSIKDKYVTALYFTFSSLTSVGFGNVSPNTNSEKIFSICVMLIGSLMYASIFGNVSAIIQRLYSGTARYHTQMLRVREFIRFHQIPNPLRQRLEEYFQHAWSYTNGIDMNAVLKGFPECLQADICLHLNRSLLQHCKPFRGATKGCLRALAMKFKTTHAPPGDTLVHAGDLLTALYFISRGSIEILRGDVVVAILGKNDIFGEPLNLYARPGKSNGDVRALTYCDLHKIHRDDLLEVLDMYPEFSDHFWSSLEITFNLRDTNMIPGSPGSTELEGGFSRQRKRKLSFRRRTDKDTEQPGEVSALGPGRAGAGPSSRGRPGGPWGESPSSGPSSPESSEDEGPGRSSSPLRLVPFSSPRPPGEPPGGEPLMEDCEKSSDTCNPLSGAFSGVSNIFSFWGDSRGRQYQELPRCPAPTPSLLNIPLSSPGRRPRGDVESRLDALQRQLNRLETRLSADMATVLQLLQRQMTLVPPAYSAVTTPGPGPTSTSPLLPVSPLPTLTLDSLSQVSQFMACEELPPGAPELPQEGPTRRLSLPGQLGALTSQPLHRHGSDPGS
Description: The activity of compounds according to formula I against the hERG-encoded potassium channel can be determined according to Kiss L, et al. Assay Drug Dev Technol. 1 (2003), 127-35: “High throughput ion-channel pharmacology: planar-array-based voltage clamp”.
The IC50 values tested as described above were generally greater than 8 μM.

CYP3A4 = CYP3A4 (Homo sapiens, UniProt P08684); assay: CYP3A4 inhibition according to Bapiro et al; format: in vitro ADME
CYP3A4, sequence (P08684 whole entry): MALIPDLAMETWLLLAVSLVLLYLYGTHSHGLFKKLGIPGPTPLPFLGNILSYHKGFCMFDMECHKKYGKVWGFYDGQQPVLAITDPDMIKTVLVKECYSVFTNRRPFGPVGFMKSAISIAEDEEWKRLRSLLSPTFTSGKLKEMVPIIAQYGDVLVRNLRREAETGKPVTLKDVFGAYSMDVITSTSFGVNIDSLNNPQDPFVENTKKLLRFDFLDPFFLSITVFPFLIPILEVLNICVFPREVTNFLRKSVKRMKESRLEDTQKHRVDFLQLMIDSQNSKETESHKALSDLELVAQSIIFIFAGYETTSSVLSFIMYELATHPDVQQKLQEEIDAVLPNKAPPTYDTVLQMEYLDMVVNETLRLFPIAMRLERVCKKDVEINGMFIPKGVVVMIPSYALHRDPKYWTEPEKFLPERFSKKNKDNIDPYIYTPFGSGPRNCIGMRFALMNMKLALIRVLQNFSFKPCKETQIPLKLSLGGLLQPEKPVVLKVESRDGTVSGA
Description: The IC50 values tested according to Bapiro et al; Drug Metab. Dispos. 29, 30-35 (2001) were generally greater than 50 μM.

[2] = Metabolic stability in liver microsomes (intrinsic clearance); format: in vitro ADME; conditions: human, pH 7.4, 37° C., read-out: CLint (HLM)
Description: The metabolic stability of compounds according to formula I can be determined as described below: […]
The rate of biotransformation can be measured as either metabolite(s) formation or the rate of disappearance of the parent compound. The experimental design involves incubation of low concentrations of substrate (usually 1.0 μM) with liver microsomes (usually 0.5 mg/ml) and taking out aliquotes at varying time points (usually 0, 5, 10, 15, 20, 30, 40 min.). The test compound is usually dissolved in DMSO. The DMSO concentration in the incubation mixture is usually 0.1% or less since more solvent can drastically reduce the activities of some CYP450s. Incubations are done in 100 mM potassium phosphate buffer, pH 7.4 and at 37° C. Acetonitrile or methanol is used to stop the reaction. The parent compound is analysed by HPLC-MS. From the calculated half-life, t1/2, the intrinsic clearance, Clint, is estimated by taking microsomal protein concentration and liver weight into account.

Kb (human NK1 receptor): 25.1 nM
Kb (human NK2 receptor): 50.1 nM
Kb (human NK3 receptor): 126 nM
IC50 (CYP3A4): > 50000 nM
microsomal CLint at 1 μM [2]: 39 µL/min/mg
SMILES: CN(C[C@@H](CCN1CC(N2CCOCC2)C1)c1ccc(F)cc1)C(=O)c1cc(Cl)cc(C(F)(F)F)c1 [Ex1, 3-Chloro-N-[(2S)-2-(4-fluorophenyl)-4-(3-morpholin-4-ylazetidin-1-yl)butyl]-N-methyl-5-(trifluoromethyl)benzamide]
IC50 [1]: 8500 nM
